According to ChEMBL document CHEMBL1145536, “Low-oxygen-recovery assay for high-throughput screening of compounds against nonreplicating Mycobacterium tuberculosis” (2007):
≈ marks a conversion by molar mass, not a printed value.

Columns and labels:
Assay type in all cases: functional
[1] = system: Mycobacterium tuberculosis; assay: Antimicrobial activity against non replicating persistence Mycobacterium tuberculosis H37Rv in aerobic condition assessed by relative light units after 7 days; conditions: 168 h
[2] = system: Mycobacterium tuberculosis; assay: Antimicrobial activity against non replicating persistence Mycobacterium tuberculosis H37Rv in aerobic condition assessed as bacterial density after 7 days; conditions: 168 h
[3] = system: Mycobacterium tuberculosis; assay: Antimicrobial activity against non replicating persistence Mycobacterium tuberculosis H37Rv in anaerobic condition assessed as relative light unit after 11 days by LORA assay; conditions: 264 h
[4] = system: Mycobacterium tuberculosis; assay: Antimicrobial activity against non replicating persistence Mycobacterium tuberculosis H37Rv in anaerobic condition assessed as bacterial density after 10 days; conditions: 240 h

SMILES | MIC [1] [µM] | MIC [2] [µM] | MIC [3] [µM] | MIC [4] [µM]
CC[C@H]1OC(=O)[C@H](C)[C@@H](O[C@H]2C[C@@](C)(OC)[C@@H](O)[C@H](C)O2)[C@H](C)[C@@H](O[C@@H]2O[C@H](C)C[C@H](N(C)C)[C@H]2O)[C@](C)(OC)C[C@@H](C)C(=O)[C@H](C)[C@@H]2N(NCCCc3ccnc4ccccc34)C(=O)O[C@@]21C | 0.8 (≈ 0.766 µg/mL) | 1.8 (≈ 1.72 µg/mL) | 2.7 (≈ 2.58 µg/mL) | 1.3 (≈ 1.24 µg/mL)
CCC[C@@H]1C[C@@H](C(=O)N[C@H](C(C)Cl)[C@H]2O[C@H](SC)[C@H](O)[C@@H](O)[C@H]2O)N(C)C1 (single isomer, unassigned) [CLINDAMYCIN] | > 128 | > 128 | > 128 | > 128
CN[C@@H]1[C@H](O[C@H]2[C@H](O[C@H]3[C@H](O)[C@@H](O)[C@H](N=C(N)N)[C@@H](O)[C@@H]3N=C(N)N)O[C@@H](C)[C@]2(O)C=O)O[C@@H](CO)[C@H](O)[C@H]1O (stereo in doubt) [STREPTOMYCIN] | 0.5 (≈ 0.291 µg/mL) | ≤ 0.5 | 1.2 (≈ 0.698 µg/mL) | 0.8 (≈ 0.465 µg/mL)
NCC[C@H](O)C(=O)N[C@@H]1C[C@H](N)[C@@H](O[C@H]2O[C@H](CN)[C@@H](O)[C@H](O)[C@H]2O)[C@H](O)[C@H]1O[C@H]1O[C@H](CO)[C@@H](O)[C@H](N)[C@H]1O [AMIKACIN] | 0.5 (≈ 0.293 µg/mL) | ≤ 0.5 | ≤ 0.5 | ≤ 0.5
Nc1ccc(C(=O)O)c(O)c1 [AMINOSALICYLIC ACID] | 12.3 (≈ 1.88 µg/mL) | 12.3 (≈ 1.88 µg/mL) | > 128 | > 128
CC(=O)Nc1ccc(/C=N/NC(N)=S)cc1 [AMITHIOZONE] | 14.6 (≈ 3.45 µg/mL) | 31.3 (≈ 7.4 µg/mL) | > 128 | 70.4 (≈ 16.6 µg/mL)
O=C(O)c1cn(C2CC2)c2cc(N3CCNCC3)c(F)cc2c1=O [CIPROFLOXACIN] | 1.5 (≈ 0.497 µg/mL) | ≤ 0.5 | > 128 | 33 (≈ 10.9 µg/mL)
CC[C@H]1OC(=O)[C@H](C)[C@@H](O[C@H]2C[C@@](C)(OC)[C@@H](O)[C@H](C)O2)[C@H](C)[C@@H](O[C@@H]2O[C@H](C)C[C@H](N(C)C)[C@H]2O)[C@](C)(OC)C[C@@H](C)C(=O)[C@H](C)[C@@H](O)[C@]1(C)O [CLARITHROMYCIN] | 13.4 (≈ 10 µg/mL) | 1.6 (≈ 1.2 µg/mL) | > 128 | 18.7 (≈ 14 µg/mL)
CC(C)/N=c1\cc2n(-c3ccc(Cl)cc3)c3ccccc3nc-2cc1Nc1ccc(Cl)cc1 [CLOFAZIMINE] | ≤ 0.5 | 0.7 (≈ 0.331 µg/mL) | 1.5 (≈ 0.71 µg/mL) | 0.8 (≈ 0.379 µg/mL)
N[C@@H]1CONC1=O [CYCLOSERINE] | 63.7 (≈ 6.5 µg/mL) | 60.5 (≈ 6.18 µg/mL) | > 128 | 125 (≈ 12.7 µg/mL)
CC[C@@H](CO)NCCN[C@@H](CC)CO [ETHAMBUTOL] | 1.8 (≈ 0.368 µg/mL) | 1 (≈ 0.204 µg/mL) | > 128 | > 128
O=C1OCCN1/N=C/c1ccc([N+](=O)[O-])o1 [FURAZOLIDONE] | 77.4 (≈ 17.4 µg/mL) | 1 (≈ 0.225 µg/mL) | 9.7 (≈ 2.18 µg/mL) | 44.8 (≈ 10.1 µg/mL)
CC(=O)O[C@H]1C[C@@]2(C)[C@@H](C[C@@H](O)[C@H]3[C@@]4(C)CC[C@@H](O)[C@@H](C)[C@@H]4CC[C@@]32C)/C1=C(\CCC=C(C)C)C(=O)O [FUSIDIC ACID] | 15.8 (≈ 8.16 µg/mL) | 7 (≈ 3.62 µg/mL) | 57.7 (≈ 29.8 µg/mL) | 7.2 (≈ 3.72 µg/mL)
NNC(=O)c1ccncc1 [ISONIAZID] | ≤ 0.5 | ≤ 0.5 | > 128 | > 128
CC(=O)N1CCN(c2ccc(OC[C@H]3CO[C@](Cn4ccnc4)(c4ccc(Cl)cc4Cl)O3)cc2)CC1 [KETOCONAZOLE] | 13.9 (≈ 7.39 µg/mL) | 7.6 (≈ 4.04 µg/mL) | 53 (≈ 28.2 µg/mL) | 53.3 (≈ 28.3 µg/mL)
CCC[C@@H]1C[C@@H](C(=O)N[C@@H]([C@H]2O[C@H](SC)[C@H](O)[C@@H](O)[C@H]2O)[C@@H](C)O)N(C)C1 [LINCOMYCIN] | > 128 | 104 (≈ 42.1 µg/mL) | > 128 | > 128
CC(=O)NC[C@H]1CN(c2ccc(N3CCOCC3)c(F)c2)C(=O)O1 [LINEZOLID] | 6.3 (≈ 2.13 µg/mL) | 1.9 (≈ 0.641 µg/mL) | 65.2 (≈ 22 µg/mL) | > 128
Cc1ncc([N+](=O)[O-])n1CCO [METRONIDAZOLE] | > 128 | > 128 | > 128 | 40 (≈ 6.85 µg/mL)
CN(C)c1ccc(O)c2c1C[C@H]1C[C@H]3[C@H](N(C)C)C(O)=C(C(N)=O)C(=O)[C@@]3(O)C(O)=C1C2=O [MINOCYCLINE] | 7.1 (≈ 3.25 µg/mL) | 7.2 (≈ 3.29 µg/mL) | 53.5 (≈ 24.5 µg/mL) | 38.4 (≈ 17.6 µg/mL)
COc1c(N2C[C@@H]3CCCN[C@@H]3C2)c(F)cc2c(=O)c(C(=O)O)cn(C3CC3)c12 [MOXIFLOXACIN] | 0.5 (≈ 0.201 µg/mL) | ≤ 0.5 | 15.9 (≈ 6.38 µg/mL) | ≤ 0.5
O=C(Nc1ccc([N+](=O)[O-])cc1Cl)c1cc(Cl)ccc1O [NICLOSAMIDE] | ≤ 0.5 | ≤ 0.5 | ≤ 0.5 | 0.9 (≈ 0.294 µg/mL)
O=C1CN(/N=C/c2ccc([N+](=O)[O-])o2)C(=O)N1 [NITROFURANTOIN] | > 128 | 0.9 (≈ 0.214 µg/mL) | 63.9 (≈ 15.2 µg/mL) | 32 (≈ 7.62 µg/mL)
CC1COc2c(N3CCN(C)CC3)c(F)cc3c(=O)c(C(=O)O)cn1c23 (stereo not given) [OFLOXACIN] | 2.3 (≈ 0.831 µg/mL) | 0.7 (≈ 0.253 µg/mL) | > 128 | 24.2 (≈ 8.75 µg/mL)
O=[N+]([O-])c1cn2c(n1)OC[C@@H](OCc1ccc(OC(F)(F)F)cc1)C2 [PRETOMANID] | 0.6 (≈ 0.216 µg/mL) | 0.7 (≈ 0.251 µg/mL) | 3.1 (≈ 1.11 µg/mL) | 12 (≈ 4.31 µg/mL)
NC(=O)c1cnccn1 [PYRAZINAMIDE] | > 128 | > 128 | > 128 | 96 (≈ 11.8 µg/mL)
CO[C@H]1/C=C/O[C@@]2(C)Oc3c(C)c(O)c4c(c3C2=O)C2=NC3(CCN(CC(C)C)CC3)NC2=C(NC(=O)/C(C)=C\C=C\[C@H](C)[C@H](O)[C@@H](C)[C@@H](O)[C@@H](C)[C@H](OC(C)=O)[C@@H]1C)C4=O [RIFABUTIN] | 0.5 (≈ 0.424 µg/mL) | ≤ 0.5 | ≤ 0.5 | ≤ 0.5
CO[C@H]1/C=C/O[C@@]2(C)Oc3c(C)c(O)c4c(O)c(c(/C=N/N5CCN(C)CC5)c(O)c4c3C2=O)NC(=O)/C(C)=C\C=C\[C@H](C)[C@H](O)[C@@H](C)[C@@H](O)[C@@H](C)[C@H](OC(C)=O)[C@@H]1C [RIFAMPIN] | 0.5 (≈ 0.411 µg/mL) | ≤ 0.5 | 1.8 (≈ 1.48 µg/mL) | ≤ 0.5
C[C@]1(Cn2ccnn2)[C@H](C(=O)O)N2C(=O)C[C@H]2S1(=O)=O [TAZOBACTAM] | > 128 | > 128 | > 128 | > 128
COc1cc(Cc2cnc(N)nc2N)cc(OC)c1OC [TRIMETHOPRIM] | > 128 | > 128 | > 128 | 83.2 (≈ 24.2 µg/mL)
CN[C@H](CC(C)C)C(=O)N[C@H]1C(=O)N[C@@H](CC(N)=O)C(=O)N[C@H]2C(=O)N[C@H]3C(=O)N[C@H](C(=O)N[C@H](C(=O)O)c4cc(O)cc(O)c4-c4cc3ccc4O)[C@H](O)c3ccc(c(Cl)c3)Oc3cc2cc(c3O[C@@H]2O[C@H](CO)[C@@H](O)[C@H](O)[C@H]2O[C@H]2C[C@](C)(N)[C@H](O)[C@H](C)O2)Oc2ccc(cc2Cl)[C@H]1O [VANCOMYCIN] | > 128 | 15.5 (≈ 22.5 µg/mL) | > 128 | 128 (≈ 186 µg/mL)
